The target of test [1] is T1, CBL-B (residues 36-427) (Homo sapiens, UniProt Q13191).
T1 construct: Purified CBL-B (residues 36-427) and C-CBL (residues 46-435) proteins from baculovirus-infected insect cells; made in house; host or cells: baculovirus-infected insect cells
Briefly: Ligand Displacement Assay (LDA), HTRF competitive binding against BODIPY-labeled fluorescent tracer, CBL-B. To be noted: geometric mean of the number of tests, read-out: CBL-B Ki (nM) GMean. A digest of the protocol:
(§1)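 Competition with a BODIPY fluorescent tracer was read by HTRF, each protein carrying an N-terminal biotinylated AviTag bound to Tb-streptavidin. Tracer KD values were set beforehand per protein; Ki derives from duplicate three-fold compound series ([…], 2% DMSO), averaged geometrically across tests.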

Test [2] concerns the target T2, CBL-B (Homo sapiens, UniProt Q13191).
T2 construct: endogenous in cells; host or cells: Jurkat HiBit-IL2 reporter cells, C-CBL knocked out by CRISPR
Briefly: Jurkat HiBit-IL2 assay (c-CBL KO), reporter cell line expressing CBL-B only. To be noted: geometric mean, read-out: C-CBL KO EC50 (nM) GMean. Type of test: cell-based. An excerpt:
(§2) Jurkat HiBit-IL2 Assay (WT, c-CBL KO, CBL-B KO)
(§3) The purpose of the Jurkat HiBit-IL2 assay is to evaluate the effect of the inhibition of CBL-B and/or C-CBL on TCR/CD28 stimulated interleukin-2 (IL-2) secretion.
(§4) The expression of IL-2 can then be accurately measured by HiBit luciferase assay. Further, C-CBL or CBL-B was knocked out by CRISPR respectively in this Jurkat HiBit-IL2 reporter cell line to create reporter cell line expressing CBL-B only (c-CBL knockout (KO)) or C-CBL only (CBL-B KO).
(§5) All three reporter cell lines were maintained in RPMI-1640 media with GlutaMax, 10% fetal bovine serum, 100 units/ml of penicillin, and 100 μg/ml of streptomycin at 37° C., 5% CO2, at a cell density 1×10e5-2×10e6 viable cells/ml. Serial diluted compounds in DMSO (40 nl/well, final 0.1% DMSO in assay cell culture) were plated into 384-well white-wall clear-bottom cell culture plates. Reporter cells were pelleted and resuspended in fresh cell culture medium to 0.66×10e6 cells/ml and added to the assay plate at 30 μl/well (20,000 cells/well). The cells were incubated with compounds for 1 hour at 37° C., 5% CO2. 10 μl/well of anti-CD3 antibody (OKT3) and anti-CD28 antibody (CD28.2) prediluted in fresh cell culture medium at 4× final concentration (anti-CD3 mAb: 4 μg/ml; anti-CD28 mAb: 8 μg/ml) was added into the cells (final concentration of anti-CD3 mAb: 1 μg/ml; anti-CD28 mAb: 2 μg/ml). The cells were cultured for another 4 hours at 37° C., 5% CO2. The Nano-Glo HiBiT Lytic Reagent was prepared following the manufacturer's protocol. 20 ul/well of the Nano-Glo HiBiT Lytic Reagent was added into the reporter cell culture assay plate and incubated at room temperature (20-25° C.) for 15 minutes. The plates were read on a Perkin-Elmer EnVision plate reader with 0.1 second integration time. Data were normalized to “Fold of Effect” with the anti-CD3 and anti-CD28 antibodies only samples as the baseline activation level and EC50 was calculated. The EC50 (nM) values reported are the geometric means (GMean) of the number of tests conducted.

The target of test [3] is T3, C-CBL (Homo sapiens, UniProt P22681).
T3 construct: endogenous in cells; host or cells: Jurkat HiBit-IL2 reporter cells, CBL-B knocked out by CRISPR
Put plainly: Jurkat HiBit-IL2 assay (CBL-B KO), reporter cell line expressing C-CBL only. To be noted: geometric mean, read-out: CBL-B KO EC50 (nM) GMean. Format: cell-based.
Excerpt: as §2, §3, §4, §5

The target of test [4] is T4, C-CBL (residues 46-435) (Homo sapiens, UniProt P22681).
T4 construct: Purified CBL-B (residues 36-427) and C-CBL (residues 46-435) proteins from baculovirus-infected insect cells; made in house; host or cells: baculovirus-infected insect cells
T4 sequence (P22681 46-435): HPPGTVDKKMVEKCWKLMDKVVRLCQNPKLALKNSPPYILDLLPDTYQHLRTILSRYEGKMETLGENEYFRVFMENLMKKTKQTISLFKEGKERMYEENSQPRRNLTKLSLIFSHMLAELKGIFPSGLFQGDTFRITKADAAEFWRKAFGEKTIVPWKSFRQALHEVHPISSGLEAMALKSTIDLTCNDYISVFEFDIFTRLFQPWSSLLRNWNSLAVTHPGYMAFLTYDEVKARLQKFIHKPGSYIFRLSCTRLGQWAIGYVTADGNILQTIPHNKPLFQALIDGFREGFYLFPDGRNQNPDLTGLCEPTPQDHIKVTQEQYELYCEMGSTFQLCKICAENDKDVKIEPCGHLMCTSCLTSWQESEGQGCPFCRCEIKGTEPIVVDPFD
Briefly: Ligand Displacement Assay (LDA), HTRF competitive binding against BODIPY-labeled fluorescent tracer, C-CBL. To be noted: geometric mean of the number of tests, read-out: C-CBL Ki (nM) GMean. In a few lines:
as §1

In test [5] the target is T5, WT CBL-B (36-427) (Homo sapiens, UniProt Q13191).
T5 construct: N-terminal biotinylated WT CBL-B (36-427) and C-CBL (46-435) were captured on a streptavidin (SA) coated sensor chip
Put plainly: Surface Plasmon Resonance (SPR) assay, binding affinity and kinetics, CBL-B. To be noted: SPR at 10° C., biotinylated WT CBL-B (36-427) on streptavidin chip; geometric mean; read-out: CBL-B SPR Kd (nM) GMean. A digest of the protocol:
(§6)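 SPR kinetics at 10° C, run either single-cycle (0.001–1 μM, 3-fold, 6 points, 120 s on, >5400 s off) or multi-cycle (10 points, 2-fold, top 10 or 100 μM, 90 s on). Proteins were N-biotinylated CBL-B (36-427) and C-CBL (46-435) on SA surfaces, in pH 7.2 HEPES, 2% DMSO.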

Test [6] deals with T6, C-CBL (46-435) (Homo sapiens, UniProt P22681).
T6 construct: N-terminal biotinylated WT CBL-B (36-427) and C-CBL (46-435) were captured on a streptavidin (SA) coated sensor chip
T6 sequence (P22681 46-435): T4 sequence (P22681 46-435)
Put plainly: Surface Plasmon Resonance (SPR) assay, binding affinity and kinetics, C-CBL. To be noted: SPR at 10° C., biotinylated C-CBL (46-435) on streptavidin chip; geometric mean; read-out: C-CBL SPR Kd (nM) GMean. In a few lines: as §6

[7] abbreviates: C-CBL KO (expressing CBL-B only), Table 16b (further repetition).
Where [8] appears, read: c-CBL KO (CBL-B only), anti-CD3/anti-CD28 stimulation 4 hours, Table 16a.
Where [9] appears, read: CBL-B KO (C-CBL only), anti-CD3/anti-CD28 stimulation 4 hours, Table 16a.
[10] abbreviates: CBL-B KO (expressing C-CBL only), Table 16b (further repetition).

Read-outs that look alike come from different tables or passages of the source.

As to `CC(NCCO)c1nc(C(F)(F)F)cc2c(-c3cccc([C@H](c4nncn4C)C4CCCCC4)c3)n[nH]c12` (single isomer, unassigned) [Example C39], the Ki is 7.4 nM in test [1] and 73.2 nM in test [4]. In addition, the EC50 in test [2] (setting [7]) stood at 108 nM; in test [2] (setting [8]), 35 nM; in test [3] (setting [9]) it was 496 nM; in test [3] (setting [10]) it was 615 nM.

On to `CC(NCCO)c1nc(C(F)(F)F)cc2c(-c3cccc([C@H](c4nncn4C)C4CCCCC4)c3)n[nH]c12` (single isomer, unassigned) [Example C40], for which the values for the Ki in test [1] and in test [4] were 7.1 nM and 95.9 nM, respectively. For the same molecule, the EC50 came to 214 nM in test [2] (setting [7]), 47 nM in test [2] (setting [8]), 1360 nM in test [3] (setting [9]) and 1560 nM in test [3] (setting [10]).

For the molecule `CC(NCCO)c1nc(C(F)(F)F)cc2c(-c3cccc([C@H](c4nncn4C)C4CCC4)c3)n[nH]c12` (single isomer, unassigned) [Example C41], the Ki in test [1] is 3.2 nM; in test [4] it was 30.1 nM. In addition, the EC50 in test [2] (setting [7]) stood at 154 nM; in test [2] (setting [8]), 42 nM; in test [3] (setting [9]), 327 nM; in test [3] (setting [10]) it was 877 nM.

For the molecule `CC(NCCO)c1nc(C(F)(F)F)cc2c(-c3cccc([C@H](c4nncn4C)C4CCC4)c3)n[nH]c12` (single isomer, unassigned) [Example C42], the Ki in test [1] is 2.5 nM; in test [4], 28.2 nM. The EC50 in test [2] (setting [7]) was 94 nM; in test [2] (setting [8]), 29 nM; in test [3] (setting [9]) it was 316 nM; in test [3] (setting [10]) it was 635 nM.

`C[C@H](CO)N[C@@H](C)c1nc(C(F)(F)F)cc2c(-c3cccc([C@H](c4nncn4C)C4CCC4)c3)n[nH]c12` (single isomer, unassigned) [Example C43]: the values for the Ki in test [1] and in test [4] were 6.7 nM and 87.7 nM, respectively. Also, the EC50 in test [2] (setting [7]) is 61 nM; in test [2] (setting [8]), 51 nM; in test [3] (setting [9]), 912 nM; in test [3] (setting [10]), 554 nM.

`C[C@H](CO)N[C@H](C)c1nc(C(F)(F)F)cc2c(-c3cccc([C@H](c4nncn4C)C4CCC4)c3)n[nH]c12` (single isomer, unassigned) [Example C44]: the Ki was 2.2 nM in test [1] and 25 nM in test [4]. Further, the EC50 in test [2] (setting [7]) was determined as 60 nM; in test [2] (setting [8]), 21 nM; in test [3] (setting [9]), 253 nM; in test [3] (setting [10]) it was 356 nM.

`CC(NCC(C)(C)O)c1nc(C(F)(F)F)cc2c(-c3cccc([C@H](c4nncn4C)C4CCC4)c3)n[nH]c12` (single isomer, unassigned) [Example C45]: the Ki in test [1] was found to be 2.5 nM; in test [4], 22.1 nM. The EC50 in test [2] (setting [7]) amounted to 30 nM; in test [2] (setting [8]) it was 14 nM; in test [3] (setting [9]), 102 nM; in test [3] (setting [10]), 115 nM.

Consider `C[C@@H](N[C@H]1CCC[C@@H]1O)c1nc(C(F)(F)F)cc2c(-c3cccc([C@H](c4nncn4C)C4CCC4)c3)n[nH]c12` (single isomer, unassigned) [Example C46], for which the Ki in test [1] turned out to be 9.4 nM; in test [4] it was 67.8 nM. In addition, the EC50 in test [2] (setting [7]) was 61 nM; in test [2] (setting [8]), 36 nM; in test [3] (setting [9]), 392 nM; in test [3] (setting [10]), 330 nM.

For `CC(N[C@H](C)[C@H](C)O)c1nc(C(F)(F)F)cc2c(-c3cccc([C@H](c4nncn4C)C4CCC4)c3)n[nH]c12` (single isomer, unassigned) [Example C48], the results for the Ki in test [1] and in test [4] were 2.5 nM and 33 nM, respectively. Moreover, the EC50 was 67 nM in test [2] (setting [7]), 20 nM in test [2] (setting [8]), 493 nM in test [3] (setting [9]) and 466 nM in test [3] (setting [10]).

As to `CC(NC[C@H](C)O)c1nc(C(F)(F)F)cc2c(-c3cccc([C@H](c4nncn4C)C4CCCCC4)c3)n[nH]c12` (single isomer, unassigned) [Example C99], the Ki was 3.1 nM in test [1] and 13.8 nM in test [4]. Moreover, the results for the EC50 in test [2] (setting [7]) and in test [3] (setting [10]) were 44 nM and 323 nM, respectively.

As to `CC(NC[C@H](C)O)c1nc(C(F)(F)F)cc2c(-c3cccc([C@H](c4nncn4C)C4CCCCC4)c3)n[nH]c12` (single isomer, unassigned) [Example C100], the Ki in test [1] came to 2.8 nM; in test [4], 40.4 nM. The values for the EC50 in test [2] (setting [7]) and in test [3] (setting [10]) were 110 nM and 1410 nM, respectively.

In the case of `CC(N[C@H]1CCC[C@@H]1O)c1nc(C(F)(F)F)cc2c(-c3cccc([C@H](c4nncn4C)C4CCCCC4)c3)n[nH]c12` (single isomer, unassigned) [Example C101], the Ki worked out at 2.5 nM in test [1] and 21 nM in test [4]. The EC50 worked out at 58 nM in test [2] (setting [7]) and 909 nM in test [3] (setting [10]).

In the case of `CC(NCC(C)(C)O)c1nc(C(F)(F)F)cc2c(-c3cccc([C@H](c4nncn4C)C4CCC4)c3)n[nH]c12` (single isomer, unassigned) [Example C117], the values for the Ki in test [1] and in test [4] were 7.9 nM and 83.6 nM, respectively. Moreover, the values for the EC50 in test [2] (setting [7]) and in test [3] (setting [10]) were 170 nM and 794 nM, respectively.

Turning to `Cn1cnnc1[C@@H](c1cccc(-c2n[nH]c3c(CN[C@@H]4CCC(F)(F)C4)nc(C(F)(F)F)cc23)c1)C1CCC1` [Example C5, (1R)-N-{[3-{3-[(R)-cyclobutyl(4-methyl-4H-1,2,4-triazol-3-yl)methyl]phenyl}-5-(trifluoromethyl)-1H-pyrazolo[3,4-c]cyclopen-7-yl]methyl}-3,3-difluorocyclopentan-1-amine], the Ki was 55.3 nM in test [1] and 526 nM in test [4]. The dissociation constant Kd in test [5] was 3.4 nM; in test [6] it was 203 nM. For the same molecule, the 50% effective concentration (EC50) in test [3] (setting [9]) worked out at 1250 nM.

Source of the values: patent US20260125375A1 (Pfizer Inc., priority 2022, published 2026).
